These results are taken from PubChem BioAssay (NCI).

Structures are written as SMILES. Where “and” joins values, the source holds several entries; their conditions need not be identical. Equal values may be shown once.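 48-hour exposure; five concentrations; linearly interpolated endpoints. GI50 is the concentration that inhibits growth by half. TGI is the concentration that stops growth completely.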

This experiment relates to MDA-MB-468 breast. The experiment in a line: inhibition of tumour cell growth, NCI panel, 48 h.
For the compound `COc1ccc2nc(NC(=O)COc3cc(/C=C\c4cc(OC)c(OC)c(OC)c4)ccc3OC)sc2c1`, the GI50 is 2.29 µM and the TGI was determined as 8.37 µM.

With `CCCCCCC/C(=N\N=C(N)N)c1ccc(O)cc1`, the GI50 was 1.3 µM and the TGI was determined as 2.6 µM.

Take `CCCOc1cc2c(cc1O)CC[C@@H]1[C@@H]2CC[C@]2(C)[C@@H](O)CC[C@@H]12`: the GI50 is 2.8 µM and the TGI was determined as 16.7 µM.

As to `COc1ccc2[nH]c(C(=O)N3CCN(C(=O)OCc4ccc5c(Br)cc(Br)c(O)c5n4)CC3)cc2c1`, the GI50 was 0.209 µM and the TGI was found to be 0.506 µM.

As for `COc1cnc2c(c1)C(=O)c1c-2n(CCCNCC2CC2)c(=O)c2cc(F)ccc12`, the GI50 was 0.316 µM and the TGI was determined as 0.904 µM.

Take `COc1ccc(C(=O)NCCNc2nccc(-c3c(-c4ccc(F)cc4)nc4sccn34)n2)cc1`: the GI50 is 4.74 µM and the TGI worked out at 41 µM.

`NC(=O)[C@@H](CCC(F)(F)F)N(Cc1ccc(-c2ncon2)cc1F)S(=O)(=O)c1ccc(Cl)cc1`: the GI50 was 7.26 µM and the TGI was greater than 100 µM.

As for `COC(=O)N1c2ccc3c(nc(Cc4ccccc4)n3[C@H]3CCC[C@H](C(=O)O)C3)c2CC[C@@H]1C`, the GI50 was 3.82 µM and the TGI was greater than 100 µM.

On to `Clc1ccc(CN2COc3c(ccc4cccnc34)C2)cc1Cl`, for which the GI50 was 0.543 µM and the TGI amounted to 2.16 µM.

Turning to `O=C(CCl)Nc1ccc2c(Nc3cc(O)ccc3Cl)ncnc2c1`, the GI50 is 2.29 µM and the TGI stood at 7.68 µM.

Turning to `CC(=O)Nc1nc(C)c(-c2csc(Nc3ccccc3)n2)s1`, the GI50 is 1.74 µM and the TGI came to 9.01 µM.

Regarding `Cn1cc(-c2ccc(-c3cn(C)c4ncccc34)[nH]2)c2cccnc21`, the GI50 is 1.79 µM and the TGI stood at 5.22 µM.

With `NCCOc1ncccc1/C=C1\C2C=CC=CC2C2C=CC(F)=CC12` (stereo not drawn), the GI50 is 0.483 µM and the TGI was 2.01 µM.

With `CCC(=O)Oc1cc(/C=C/C(=O)O[C@H]2C[C@H]3CN4CCc5c([nH]c6cc(OC)ccc56)[C@@H]4C[C@@H]3[C@@H](C(=O)OC)[C@@H]2OC)ccc1OC`, the GI50 is 4.76 µM and the TGI was 33.3 µM.

`O=c1c2c3c(sc2n2c(CCl)nnc2n1Cc1ccccc1)CCCC3`: the GI50 was 1.77 µM and the TGI was 3.72 µM.

Turning to `CCCCCCCCNC(=O)c1ccc(Cn2c(CCCC)nc3c(N)nc4ccccc4c32)cc1`, the GI50 is 1.38 µM and the TGI turned out to be 3.06 µM.

As to `CS(C)(=O)=O`, the GI50 is greater than 100000 µM and the TGI was greater than 100000 µM.

Consider `CO/N=C/C=C\C(=O)N/C=C/C[C@H]1/C=C/[C@H](O)/C=C\C=C\c2cccc(O)c2C(=O)O1`, for which the GI50 is 0.286 µM and 0.187 µM; the TGI is 29.9 µM and 17.5 µM.

On to `N#Cc1c(-c2ccc(Cl)cc2)cc(-c2cc(O)ccc2O)nc1N`, for which the GI50 is 0.769 µM and the TGI was determined as 3.72 µM.

In the case of `C=CCCCC(=O)CCC(=O)OCC1O[C@@H](O[C@@H]2C(O)[C@@H](OC(C)=O)C(C)O[C@H]2O[C@H](CC=C)CCCCC)C(O)[C@@H](OC(=O)/C(C)=C/C)[C@@H]1OC(=O)/C=C/c1ccccc1` (stereo partly drawn), the GI50 is 0.0321 µM and the TGI stood at 1.22 µM.

In the case of `O=c1cc(N2CCOCC2)oc2c(-c3ccc4c(c3)OCCO4)csc12`, the GI50 was 0.629 µM and the TGI worked out at 3.75 µM.

Regarding `COc1cc(C(=O)/C=C/c2cc(-c3cc(OC)c(OC)c(OC)c3)n[nH]2)cc(OC)c1OC`, the GI50 was 1.15 µM and the TGI came to 2.48 µM.

For `COc1ccc2oc(=O)cc(C3c4ccc([nH]4)C(c4cc(=O)oc5ccc(OC)cc45)c4ccc([nH]4)C(c4cc(=O)oc5ccc(OC)cc45)c4ccc([nH]4)C(c4cc(=O)oc5ccc(OC)cc45)c4ccc3[nH]4)c2c1` (stereo not drawn), the GI50 was 0.401 µM and the TGI was found to be 1.91 µM.

Consider `COC(=O)c1ccc([C@H]2c3[nH]c4ccccc4c3C[C@H](C(=O)OC)N2C(=O)CCl)cc1`, for which the GI50 was 0.472 µM and the TGI is 1.9 µM.
